In US12509460B2 (Skyhawk Therapeutics, Inc., priority 2019, dated 2025):

Key:
[1] = Quantitative splicing assay (HTT), qPCR; type: cell-based, human; conditions: Homo sapiens, GM04724, 24 h, GM04724 lymphoblasts, qPCR, read-out: HTT Splicing: E49-50 EC50
In short: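 TaqMan qPCR on cell-lysate cDNA quantifies cryptic-exon inclusion from HTT intron 49. Lymphoblasts plated at 50,000 cells/well had received compound for 24 h, 0.15 nM-2.5 uM range, 0.1% DMSO.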

[2] = tested on: SMN protein in spinal muscular atrophy (SMA) patient fibroblasts (GM03813, Coriell); assay: SMN protein assay, Mesoscale Discovery (MSD); type: cell-based, human; conditions: SMA patient fibroblasts GM03813, 48 hours, MSD; read-out: SMN2 protein EC50
In short: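 Absolute SMN levels were quantified by MSD against an SMN protein standard curve (1 μg/ml to 19.5 pg/ml) run on each plate. Samples were lysates of GM03813 patient fibroblasts (7000 cells/well) treated 48 hours with compound doses from 2.5 μM down to 0.6 nM.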

[3] = tested on: mHTT protein in GM04724 (CAG 70/20) Huntington's disease patient lymphoblast cells; assay: mHTT protein assay, 2B7-MW1 assay via Mesoscale Discovery (MSD); type: cell-based, human; conditions: GM04724 Huntington's disease patient lymphoblasts
In short: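 Signal from the 2B7-MW1 antibody pair on MSD, rising with polyQ length and smaller HTT fragments, measured mHTT after 48 h compound exposure (0.6 nM–10 μM) in GM04724 cells. A parallel replicate plate gave CellTiter Glo viability.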

[4] = tested on: MDR1-MDCK cell monolayers; assay: Blood-brain-barrier (BBB) penetration potential via MDCK-MDR1 permeability assay; conditions: for MDCK-MDR1: % Recov A-B: A-B direction; for MDCK-MDR1: % Recov B-A: B-A direction
MDR1 = assay: as above; conditions: dog, MDCK-MDR1, pH 7.4, MDCK-MDR1: Efflux, efflux ratio
MDR1 (P-gp) = assay: as above; conditions: dog; for Papp A→B at 120 min, 5 μM: MDCK-MDR1, pH 7.4, MDCK-MDR1: Papp A-B, A-B direction; for Papp B→A at 120 min, 5 μM: MDCK-MDR1, pH 7.4, MDCK-MDR1: Papp B-A, B-A direction
[5] = tested on: SMN FL and SMN Δ7 in spinal muscular atrophy (SMA) patient fibroblasts (GM03813, Coriell); assay: Quantitative splicing assay (SMN), qPCR; type: cell-based, human; conditions: Homo sapiens, Fibroblast, 24 h, SMA patient fibroblasts GM03813, 24 h, qPCR; read-out: SMN2 Splicing FL EC50
Protocol: Spinal muscular atrophy (SMA) patient fibroblasts (GM03813, Coriell) are plated in 96-well plates at 50,000 cells/well. […] Treated cells are lysed and cDNA synthesized using the Fast Advanced Cells-to-Ct kit (Thermofisher A35378) according to the manufacturer's instructions. 2 μL of each cDNA are used in qPCR reactions. […] Reactions are run in a Quant Studio 6 qPCR instrument with default settings.

CN(c1ccc(-c2cc3ncccc3cc2O)nn1)[C@@H]1C[C@H]2CCC[C@H](N2)[C@@H]1F [Compound 78A, 7-(6-(((1S,2S,3R,5R)-2-fluoro-9-azabicyclo[3.3.1]nonan-3-yl)(methyl)amino)pyridazin-3-yl)quinolin-6-ol]
EC50 [1]: 16 to 50 nM
EC50 [2]: 16 to 50 nM
EC50 [3]: 16 to 50 nM
MDCK-MDR1: % Recov A-B [4]: 74%
MDCK-MDR1: % Recov B-A [4]: 89%
efflux ratio at 120 min, 5 μM (MDR1): 23
Papp A→B at 120 min, 5 μM (MDR1 (P-gp)): 2.19 ×10⁻⁶ cm/s
Papp B→A at 120 min, 5 μM (MDR1 (P-gp)): 50.5 ×10⁻⁶ cm/s
EC50 [5]: 51 to 100 nM

CN(c1ccc(-c2cc3ncccc3cc2O)nn1)[C@H]1C[C@@H]2CCC[C@@H](N2)[C@H]1F [Compound 78B, 7-(6-(((1R,2R,3S,5S)-2-fluoro-9-azabicyclo[3.3.1]nonan-3-yl)(methyl)amino)pyridazin-3-yl)quinolin-6-ol]
EC50 [1]: 0.01 to 15 nM
EC50 [2]: 0.01 to 15 nM
EC50 [3]: 0.01 to 15 nM
MDCK-MDR1: % Recov A-B [4]: 73%
MDCK-MDR1: % Recov B-A [4]: 79%
efflux ratio at 120 min, 5 μM (MDR1): 12
Papp A→B at 120 min, 5 μM (MDR1 (P-gp)): 4.03 ×10⁻⁶ cm/s
Papp B→A at 120 min, 5 μM (MDR1 (P-gp)): 50.3 ×10⁻⁶ cm/s
EC50 [5]: 0.01 to 15 nM

CN(c1ccc(-c2cc3c(=O)n(C)ccc3cc2O)nn1)[C@@H]1C[C@H]2CC[C@H](N2)[C@@H]1F [Compound 83A, 7-(6-(((1S,2S,3R,5R)-2-fluoro-8-azabicyclo[3.2.1]octan-3-yl)(methyl)amino)pyridazin-3-yl)-6-hydroxy-2-methylisoquinolin-1(2H)-one]
EC50 [1]: 0.01 to 15 nM
EC50 [2]: 0.01 to 15 nM
EC50 [3]: 0.01 to 15 nM
MDCK-MDR1: % Recov A-B [4]: 89%
MDCK-MDR1: % Recov B-A [4]: 83%
efflux ratio at 120 min, 5 μM (MDR1): 44
Papp A→B at 120 min, 5 μM (MDR1 (P-gp)): 0.98 ×10⁻⁶ cm/s
Papp B→A at 120 min, 5 μM (MDR1 (P-gp)): 43.5 ×10⁻⁶ cm/s
EC50 [5]: 0.01 to 15 nM

CN(c1ccc(-c2cc3c(=O)n(C)ccc3cc2O)nn1)[C@H]1C[C@@H]2CC[C@@H](N2)[C@H]1F [Compound 83B, 7-(6-(((1R,2R,3S,5S)-2-fluoro-8-azabicyclo[3.2.1]octan-3-yl)(methyl)amino)pyridazin-3-yl)-6-hydroxy-2-methylisoquinolin-1(2H)-one]
EC50 [1]: 0.01 to 15 nM
EC50 [2]: 0.01 to 15 nM
EC50 [3]: 0.01 to 15 nM
MDCK-MDR1: % Recov A-B [4]: 77%
MDCK-MDR1: % Recov B-A [4]: 72%
efflux ratio at 120 min, 5 μM (MDR1): 31
Papp A→B at 120 min, 5 μM (MDR1 (P-gp)): 1.43 ×10⁻⁶ cm/s
Papp B→A at 120 min, 5 μM (MDR1 (P-gp)): 44.4 ×10⁻⁶ cm/s
EC50 [5]: 0.01 to 15 nM

CN(c1ccc(-c2cc3ccn(C)c(=O)c3cc2O)nn1)[C@@H]1C[C@H]2CC[C@H](N2)[C@@H]1F [Compound 84A, 6-(6-(((1S,2S,3R,5R)-2-fluoro-8-azabicyclo[3.2.1]octan-3-yl)(methyl)amino)pyridazin-3-yl)-7-hydroxy-2-methylisoquinolin-1(2H)-one]
EC50 [1]: 16 to 50 nM
EC50 [2]: 0.01 to 15 nM
EC50 [3]: 0.01 to 15 nM
MDCK-MDR1: % Recov A-B [4]: 92%
MDCK-MDR1: % Recov B-A [4]: 90%
efflux ratio at 120 min, 5 μM (MDR1): 58
Papp A→B at 120 min, 5 μM (MDR1 (P-gp)): 0.9 ×10⁻⁶ cm/s
Papp B→A at 120 min, 5 μM (MDR1 (P-gp)): 52 ×10⁻⁶ cm/s
EC50 [5]: 16 to 50 nM

CN(c1ccc(-c2cc3ccn(C)c(=O)c3cc2O)nn1)[C@H]1C[C@@H]2CC[C@@H](N2)[C@H]1F [Compound 84B, 6-(6-(((1R,2R,3S,5S)-2-fluoro-8-azabicyclo[3.2.1]octan-3-yl)(methyl)amino)pyridazin-3-yl)-7-hydroxy-2-methylisoquinolin-1(2H)-one]
EC50 [1]: 0.01 to 15 nM
EC50 [2]: 0.01 to 15 nM
EC50 [3]: 0.01 to 15 nM
MDCK-MDR1: % Recov A-B [4]: 112%
MDCK-MDR1: % Recov B-A [4]: 76%
efflux ratio at 120 min, 5 μM (MDR1): 48
Papp A→B at 120 min, 5 μM (MDR1 (P-gp)): 1.06 ×10⁻⁶ cm/s
Papp B→A at 120 min, 5 μM (MDR1 (P-gp)): 50.9 ×10⁻⁶ cm/s
EC50 [5]: 0.01 to 15 nM

CN(c1ccc(-c2cc3c(=O)n(C)cnc3cc2O)nn1)[C@@H]1C[C@H]2CC[C@H](N2)[C@@H]1F [Compound 85A, 6-(6-(((1S,2S,3R,5R)-2-fluoro-8-azabicyclo[3.2.1]octan-3-yl)(methyl)amino)pyridazin-3-yl)-7-hydroxy-3-methylquinazolin-4(3H)-one]
EC50 [1]: 16 to 50 nM
EC50 [2]: 0.01 to 15 nM
EC50 [3]: 0.01 to 15 nM
MDCK-MDR1: % Recov A-B [4]: 99%
MDCK-MDR1: % Recov B-A [4]: 99%
efflux ratio at 120 min, 5 μM (MDR1): 74
Papp A→B at 120 min, 5 μM (MDR1 (P-gp)): 0.67 ×10⁻⁶ cm/s
Papp B→A at 120 min, 5 μM (MDR1 (P-gp)): 49.2 ×10⁻⁶ cm/s
EC50 [5]: 16 to 50 nM
